One compound from ChEMBL document CHEMBL3853264 (Medchemcomm, 2016) can be followed below.

≈ marks a conversion by molar mass, not a printed value.

The target in data set [1] is Solute carrier organic anion transporter family member 2B1 (Homo sapiens, UniProt O94956). Briefly: Drug uptake assessed as human OATP2B1-mediated drug accumulation by cell-based assay relative to wild type protein. The data set is classed as ADME.
Data set [2] in a line: Intrinsic clearance in rat liver microsomes. The data set is classed as ADME. The settings on record: read-out: CLH. (Liver microsomes are vesicles of endoplasmic reticulum, rich in cytochrome P450 enzymes.)
Data set [3] is described as follows: Drug metabolism in human hepatocytes assessed as loss of chlorobenzonitrile moiety in presence of glutathione. It counts as ADME, cell-based, Hepatocyte.
A short description of data set [4]: Fraction unbound in human plasma. It counts as ADME, cell-free.
Data set [5] can be described thus: Toxicity in dog assessed as histologic change in testes at 300 mg/kg/day, po measured over 14 days. The data set is classed as organism-based, Canis lupus familiaris. The conditions noted are these: in vivo, 336 h.
A short description of data set [6]: Drug metabolism in rat assessed as oxidation of chlorophenyl ring. The data set is classed as ADME.
Data set [7] in a line: Intrinsic clearance in dog liver microsomes. The data set is classed as ADME, Canis lupus familiaris. The settings on record: read-out: CLH.
Data set [8] has as its target Solute carrier family 22 member 6 (Homo sapiens, UniProt Q4U2R8). The experiment in a line: Inhibition of OAT1 (unknown origin).
In data set [9] the target is Sodium channel protein type 5 subunit alpha (Homo sapiens, UniProt Q14524). The experiment in a line: Inhibition of human NaV1.5 expressed in HEK293 cells by patch clamp method. The data set is classed as cell-based. In general terms: In patch-clamp work, channel activity is measured electrically.
Data set [10] in a line: Intrinsic clearance in dog hepatocytes assessed per 10^6 cells. The conditions noted are these: read-out: CLH. The data set is classed as ADME, cell-based, Canis lupus familiaris, Hepatocyte.
The nature of data set [11]: Drug metabolism in human hepatocytes assessed as oxidation of chlorophenyl ring. The data set is classed as ADME, cell-based, Hepatocyte.
The nature of data set [12]: Unbound Cmax in rat at 10 mg/kg, po administered as single dose measured on day 14. The settings on record: in vivo. The data set is classed as ADME, organism-based.
The target of data set [13] is Solute carrier organic anion transporter family member 1B1 (Homo sapiens, UniProt Q9Y6L6). The experiment in a line: Drug uptake assessed as human OATP1B1-mediated drug accumulation by cell-based assay relative to wild type protein. The data set is classed as ADME.
Data set [14] has as its system Rattus norvegicus. Briefly: Toxicity in rat assessed as increase in mitosis in collecting ducts at 300 mg/kg/day, po measured over 14 days by microscopic analysis. It counts as organism-based. The conditions noted are these: in vivo, 336 h.
The test system of data set [15] is Canis familiaris. Briefly: Hepatotoxicity in female dog assessed as decrease in alanine aminotransferase levels at >= 100 mg/kg/day, po measured over 14 days. It counts as toxicity, organism-based, Canis lupus familiaris. The settings on record: in vivo, 336 h.
The test system of data set [16] is Canis familiaris. The experiment in a line: Hepatotoxicity in male dog assessed as pathological changes at >= 30 mg/kg/day, po measured over 14 days. The data set is classed as toxicity, organism-based, Canis lupus familiaris. The conditions noted are these: in vivo, 336 h.
A further data set has as its target Cytochrome P450 2C8 (Homo sapiens, UniProt P10632). The experiment in a line: Inhibition of CYP2C8 (unknown origin). It counts as ADME.
A short description of data set [17]: Volume of distribution at steady state in rat at 0.76 mg/kg, iv and 2.3 mg/kg, po. The data set is classed as ADME, organism-based. The settings on record: in vivo, read-out: Vdss.
Data set [18] in a line: Intrinsic clearance in rat hepatocytes assessed per 10^6 cells. It counts as ADME, cell-based, Hepatocyte. The settings on record: read-out: CLH.
The nature of data set [19]: Inhibition of GABAA receptor (unknown origin). Set-up: species or system Homo sapiens.
A short description of data set [20]: Solubility of the compound at pH 6.5. The data set is classed as physicochemical. The settings on record: buffer.
Data set [21] relates to Rattus norvegicus. Briefly: Toxicity in rat assessed as hepatocellular hypertrophy with focal necrosis at 300 mg/kg/day, po measured over 14 days by microscopic analysis. The data set is classed as organism-based. The settings on record: in vivo, 336 h.
Data set [22] can be described thus: Cytotoxicity against THLE cells. It counts as toxicity, cell-based. The conditions noted are these: human.

Solute carrier family 22 member 6, sequence (Q4U2R8 whole entry): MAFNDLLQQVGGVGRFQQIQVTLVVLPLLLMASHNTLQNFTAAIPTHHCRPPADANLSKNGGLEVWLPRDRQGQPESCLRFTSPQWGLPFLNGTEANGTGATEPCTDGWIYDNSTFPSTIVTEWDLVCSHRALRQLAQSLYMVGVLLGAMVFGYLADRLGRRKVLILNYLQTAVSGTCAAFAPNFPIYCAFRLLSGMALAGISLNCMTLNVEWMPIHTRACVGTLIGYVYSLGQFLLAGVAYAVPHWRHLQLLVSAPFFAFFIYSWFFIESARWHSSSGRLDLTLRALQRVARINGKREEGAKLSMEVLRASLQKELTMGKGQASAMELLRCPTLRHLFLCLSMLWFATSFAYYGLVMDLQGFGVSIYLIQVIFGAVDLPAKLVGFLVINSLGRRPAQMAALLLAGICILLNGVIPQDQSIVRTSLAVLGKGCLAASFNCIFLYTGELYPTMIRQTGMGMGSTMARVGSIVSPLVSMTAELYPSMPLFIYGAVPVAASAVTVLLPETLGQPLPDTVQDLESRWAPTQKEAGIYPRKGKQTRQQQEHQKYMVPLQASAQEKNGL
Sodium channel protein type 5 subunit alpha, sequence (Q14524 whole entry): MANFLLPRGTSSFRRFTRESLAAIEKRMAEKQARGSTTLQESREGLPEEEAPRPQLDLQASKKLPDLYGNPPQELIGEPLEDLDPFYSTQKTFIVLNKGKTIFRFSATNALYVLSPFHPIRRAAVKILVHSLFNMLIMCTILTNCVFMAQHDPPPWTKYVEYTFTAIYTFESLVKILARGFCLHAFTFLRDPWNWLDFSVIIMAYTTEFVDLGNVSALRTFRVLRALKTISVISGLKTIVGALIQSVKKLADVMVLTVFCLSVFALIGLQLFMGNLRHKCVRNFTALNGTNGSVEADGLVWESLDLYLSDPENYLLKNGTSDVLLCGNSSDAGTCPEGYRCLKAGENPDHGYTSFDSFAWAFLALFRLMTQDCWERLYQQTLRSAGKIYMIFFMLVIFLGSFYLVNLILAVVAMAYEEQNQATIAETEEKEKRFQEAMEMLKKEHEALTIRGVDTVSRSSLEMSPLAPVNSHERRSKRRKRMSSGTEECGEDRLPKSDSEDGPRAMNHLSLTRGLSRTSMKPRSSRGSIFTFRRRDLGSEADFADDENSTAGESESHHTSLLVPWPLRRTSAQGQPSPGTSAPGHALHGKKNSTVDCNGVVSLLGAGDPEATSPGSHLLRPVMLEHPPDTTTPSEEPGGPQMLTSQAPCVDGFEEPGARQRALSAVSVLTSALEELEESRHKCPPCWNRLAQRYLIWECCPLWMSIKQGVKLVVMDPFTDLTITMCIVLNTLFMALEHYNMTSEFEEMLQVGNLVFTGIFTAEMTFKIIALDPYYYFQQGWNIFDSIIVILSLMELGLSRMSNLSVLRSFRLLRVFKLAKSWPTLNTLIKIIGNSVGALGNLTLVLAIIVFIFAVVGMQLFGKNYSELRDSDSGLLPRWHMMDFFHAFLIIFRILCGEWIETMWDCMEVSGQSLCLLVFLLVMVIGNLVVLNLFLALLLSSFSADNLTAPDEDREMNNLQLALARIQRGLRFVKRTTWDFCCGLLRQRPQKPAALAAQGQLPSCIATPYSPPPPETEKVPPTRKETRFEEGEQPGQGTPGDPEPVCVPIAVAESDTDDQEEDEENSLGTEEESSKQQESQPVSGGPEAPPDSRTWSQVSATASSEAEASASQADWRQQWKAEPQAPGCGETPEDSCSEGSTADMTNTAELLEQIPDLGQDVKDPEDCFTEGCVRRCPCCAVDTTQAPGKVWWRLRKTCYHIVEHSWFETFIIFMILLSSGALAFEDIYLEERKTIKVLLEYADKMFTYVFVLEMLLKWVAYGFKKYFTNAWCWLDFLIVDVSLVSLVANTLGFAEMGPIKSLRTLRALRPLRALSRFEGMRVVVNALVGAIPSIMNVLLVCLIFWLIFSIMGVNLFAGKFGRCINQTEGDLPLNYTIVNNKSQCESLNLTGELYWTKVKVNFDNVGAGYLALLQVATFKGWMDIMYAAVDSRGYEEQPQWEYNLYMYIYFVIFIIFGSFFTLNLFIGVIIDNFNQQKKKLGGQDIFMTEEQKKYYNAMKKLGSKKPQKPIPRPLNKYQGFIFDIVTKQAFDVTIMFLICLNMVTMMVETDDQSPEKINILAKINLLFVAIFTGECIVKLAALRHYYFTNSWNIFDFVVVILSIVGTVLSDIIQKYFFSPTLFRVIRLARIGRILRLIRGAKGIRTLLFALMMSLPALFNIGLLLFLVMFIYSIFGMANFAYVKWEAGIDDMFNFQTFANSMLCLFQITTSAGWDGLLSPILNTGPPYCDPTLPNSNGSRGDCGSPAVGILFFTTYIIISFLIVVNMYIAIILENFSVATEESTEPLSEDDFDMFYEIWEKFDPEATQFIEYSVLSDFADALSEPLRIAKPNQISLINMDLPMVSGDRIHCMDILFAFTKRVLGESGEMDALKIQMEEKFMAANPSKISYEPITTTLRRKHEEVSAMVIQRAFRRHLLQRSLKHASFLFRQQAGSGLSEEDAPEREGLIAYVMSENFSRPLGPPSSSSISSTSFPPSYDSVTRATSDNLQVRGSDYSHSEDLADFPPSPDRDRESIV
Cytochrome P450 2C8, sequence (P10632 whole entry): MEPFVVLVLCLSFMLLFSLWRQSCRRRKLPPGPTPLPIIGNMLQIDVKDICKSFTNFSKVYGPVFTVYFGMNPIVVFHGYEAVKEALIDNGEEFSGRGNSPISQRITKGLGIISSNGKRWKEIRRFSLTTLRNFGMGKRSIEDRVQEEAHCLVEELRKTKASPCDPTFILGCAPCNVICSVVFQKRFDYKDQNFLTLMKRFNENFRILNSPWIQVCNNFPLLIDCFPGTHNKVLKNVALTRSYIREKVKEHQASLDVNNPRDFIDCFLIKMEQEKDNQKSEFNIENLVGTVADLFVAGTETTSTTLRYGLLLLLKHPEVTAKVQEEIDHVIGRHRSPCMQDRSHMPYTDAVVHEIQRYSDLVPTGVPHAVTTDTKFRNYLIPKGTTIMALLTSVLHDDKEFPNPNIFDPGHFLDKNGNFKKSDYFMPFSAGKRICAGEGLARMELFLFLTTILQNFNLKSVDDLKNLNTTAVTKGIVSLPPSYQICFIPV
Solute carrier organic anion transporter family member 1B1, sequence (Q9Y6L6 whole entry): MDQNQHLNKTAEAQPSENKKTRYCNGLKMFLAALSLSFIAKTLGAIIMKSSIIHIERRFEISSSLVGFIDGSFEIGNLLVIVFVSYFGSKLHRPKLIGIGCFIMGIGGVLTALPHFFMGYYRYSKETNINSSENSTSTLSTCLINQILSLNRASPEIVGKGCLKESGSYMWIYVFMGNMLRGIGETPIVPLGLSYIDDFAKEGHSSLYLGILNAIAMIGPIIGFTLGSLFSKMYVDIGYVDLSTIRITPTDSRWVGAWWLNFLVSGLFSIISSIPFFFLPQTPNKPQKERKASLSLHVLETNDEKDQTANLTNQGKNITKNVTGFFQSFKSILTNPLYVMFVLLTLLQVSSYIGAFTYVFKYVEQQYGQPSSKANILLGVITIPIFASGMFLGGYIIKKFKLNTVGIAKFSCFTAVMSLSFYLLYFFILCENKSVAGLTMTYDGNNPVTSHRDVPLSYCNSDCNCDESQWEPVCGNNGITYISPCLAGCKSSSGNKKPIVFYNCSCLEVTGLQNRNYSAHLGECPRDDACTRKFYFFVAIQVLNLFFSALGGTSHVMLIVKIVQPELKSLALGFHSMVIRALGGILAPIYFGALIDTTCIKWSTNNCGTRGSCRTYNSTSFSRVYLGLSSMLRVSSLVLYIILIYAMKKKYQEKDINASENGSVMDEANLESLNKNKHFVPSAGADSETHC
Solute carrier organic anion transporter family member 2B1, sequence (O94956 whole entry): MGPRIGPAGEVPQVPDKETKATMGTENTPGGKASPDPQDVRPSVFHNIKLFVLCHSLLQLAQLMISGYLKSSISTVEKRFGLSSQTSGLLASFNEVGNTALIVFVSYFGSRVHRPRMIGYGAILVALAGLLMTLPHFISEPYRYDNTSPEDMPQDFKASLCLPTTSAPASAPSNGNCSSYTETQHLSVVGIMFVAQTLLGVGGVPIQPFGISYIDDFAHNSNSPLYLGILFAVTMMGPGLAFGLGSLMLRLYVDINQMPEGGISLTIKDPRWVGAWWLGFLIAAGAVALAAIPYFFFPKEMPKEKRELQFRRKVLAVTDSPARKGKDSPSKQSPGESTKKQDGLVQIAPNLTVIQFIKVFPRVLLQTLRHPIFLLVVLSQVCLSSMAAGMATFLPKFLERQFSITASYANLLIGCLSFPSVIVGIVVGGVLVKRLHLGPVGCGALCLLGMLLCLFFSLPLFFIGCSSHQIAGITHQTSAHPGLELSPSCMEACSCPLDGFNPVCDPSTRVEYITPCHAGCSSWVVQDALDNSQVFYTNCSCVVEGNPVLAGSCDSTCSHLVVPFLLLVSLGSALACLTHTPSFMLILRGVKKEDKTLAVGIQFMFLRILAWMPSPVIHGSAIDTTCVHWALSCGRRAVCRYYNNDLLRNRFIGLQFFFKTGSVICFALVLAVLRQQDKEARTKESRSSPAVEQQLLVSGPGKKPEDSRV

For `N#Cc1ccc(Oc2ccc(S(=O)(=O)Nc3ccc(F)cn3)cc2C#N)cc1Cl`, the “fold change (FC)” value came out at 1.232 in data set [1] and 1.003 in [13]. The microsomal CLint was less than 14 µL/min/mg in data set [2] and less than 18 µL/min/mg in data set [7]. Also, the Drug metabolism entry in data set [3], in [6] and in data set [11] was “Metabolite_Detected” in each case. Also, in data set [4], the free fraction (fraction unbound) was found to be 0.0012. Also, the Activity result in data set [5] was “Toxic”; with Rattus norvegicus [14], “Toxic”; in the data set on Canis familiaris [15], “Toxic”; in the data set with Canis familiaris [16] it was “Non-Toxic”; in the data set on Rattus norvegicus [21], “Toxic”; in data set [22], 103 µM. Besides, the IC50 in data set [8] is 14 µM; in [9] it was more than 30 µM; at Cytochrome P450 2C8, 11.9 µM. In addition, the hepatocyte CLint in [10] is less than 6 µL/min/1e6 cells; in data set [18] it was 10 µL/min/1e6 cells. The fCmax in data set [12] is 59 nM. The Vd in [17] was 0.25 L/kg. Also, in data set [19], the inhibitory constant (Ki) was 4.8 µM. Further, the concentration in solution in [20] (solubility) was 7.7 µM (≈ 3.3 µg/mL).

As usually defined, the fraction unbound is free concentration divided by total concentration. A word on the IC50: it is the midpoint of a concentration-inhibition curve. A low value points to higher potency. The Ki is a dissociation constant, usually derived from enzyme kinetics or from competition with a known ligand. Read a high Ki as a looser hold on the target. The solubility is the dissolved amount per volume that the medium holds. Low values mean little dissolved substance, high ones much dissolved substance.
